According to patent US12558368B2, “Compositions and devices for systemic delivery of uridine” (PHARMA CINQ, LLC, priority 2018, dated 2026):

Tests used:
[1] = system: mortality caused by 3-nitropropionic acid (inhibitor of Complex II of the mitochondrial respiratory chain); assay: Protection against mortality caused by 3-nitropropionic acid (Example 2; uridine, Na(DL-BHB), Na(D-BHB)); assay type: in vivo, Female CD-1 mice; conditions: 3-NP 60 mg/kg/day i.p., s.c. uridine 200 mg/kg t.i.d. and/or Na(DL-BHB) or Na(D-BHB) 328 mg/kg t.i.d.; for Median Survival: 12 day study; for % Survival: end of 12 day study, 10 mice per group
Method: Mitochondrial dysfunction was produced by daily administration of 3-nitropropionic acid (60 mg/kg/day) by intraperitoneal injection. Groups of mice also received saline (control), uridine, DL-BHB, D-BHB, and combinations of uridine and D-BHB and DL-BHB as indicated below. Both D- and DL-BHB were administered as the water soluble sodium salts: Na(D-BHB) (Toronto Research Chemicals, catalog #H833025) and Na(DL-BHB) (VWR International, catalog #200012-200).
• 1. Vehicle Control—0.9% saline b.i.d. • 2. Uridine 200 mg/kg t.i.d. • 3. Na (DL-BHB) 328 mg/kg t.i.d. • 4. Na (D-BHB) 328 mg/kg t.i.d. • 5. Uridine 200 mg/kg+Na (DL-BHB) 328 mg/kg t.i.d. • 6. Uridine 200 mg/kg+Na (D-BHB) 328 mg/kg t.i.d.
Survival times (median survival; the time point at which 50% of animals in a group had died) and percent survival at the end of the 12 day study were used to quantify and compare protective effects of the test agents.
Female CD-1 mice at approximately 16 weeks of age were divided into weight-matched groups of 10 mice each. All mice received daily intraperitoneal injections of 3-NP (60 mg/kg) in a volume of 0.01 ml per gram of body weight at 5 PM.
The therapeutic treatments were administered by subcutaneous injection in a volume of 0.01 ml/gram of body weight three times per day, at 7 AM and 12 PM and 4 PM. 3-NP was administered at 5 PM on each of the consecutive days of the experiment. Body weights were recorded each day to adjust drug doses as mice lost weight during repeated treatment with 3-NP. Body weight was graphed for the various groups of mice until the group size decreased below 3.

[2] = Pharmacokinetics of plasma uridine and D-BHB after subcutaneous administration; assay type: in vivo, Female CD-1 mice; conditions: mice
Method: Groups of 8 mice (Female CD-1 mice, approximately 16 weeks old) were treated with subcutaneous uridine or uridine plus Na(D-BHB) as indicated in the table below. D-BHB was administered as the water soluble sodium salt Na(D-BHB) (Toronto Research Chemicals, catalog #H833025
• 1. Group 1 (200 mg/kg Uridine+Na(D-BHB) received 10 mg/ml uridine and 49.26 mg/ml Na(D-BHB) (0.02 ml/g bw). • 2. Group 2 (300 mg/kg Uridine+Na(D-BHB) received 15 mg/ml uridine and 49.26 mg/ml Na(D-BHB) (0.02 ml/g bw). • 3. Group 3 (400 mg/kg Uridine+Na(D-BHB) received 20 mg/ml uridine and 49.26 mg/ml Na(D-BHB) (0.02 ml/g bw). • 4. Group 4 (400 mg/kg Uridine) received 20 mg/ml uridine (0.02 ml/g bw).
Blood samples were obtained from the retro-orbital plexus at time points of 15, 30, 60 and 120 minutes after drug injection. Two blood samples (<200 microliters) were collected from each mouse into heparinized polyethylene tubes, with 4 mice bled at 15 and 60 minutes, and the other 4 mice in a group were bled at 30 and 120 minutes. Plasma samples were obtained by centrifugation, and were deproteinized and analyzed for uridine and uracil by an LC/MS method. Plasma D-BHB was measured in the same samples by a commercial enzymatic color-change assay.
Rodents degrade uridine to uracil more rapidly and extensively than do humans, who have lower activities of the enzyme uridine phosphorylase. Therefore, it is important to take into account plasma uracil concentrations in rodents for optimum translation of rodent pharmacokinetic results to the human situation. The sum of uridine+uracil in rodents is a better reflection of plasma uridine equivalents than is uridine alone for translation to other animal models or to human dosing.

[3] = system: mortality caused by 3-nitropropionic acid (inhibitor of Complex II of the mitochondrial respiratory chain); assay: Protection against mortality caused by 3-nitropropionic acid at 65 or 70 mg/kg/day (Example 3; uridine, Na(D-BHB)); assay type: in vivo, Female CD-1 mice; conditions: s.c. uridine 200 mg/kg t.i.d. and/or Na(D-BHB) 985 mg/kg t.i.d.; for % Survival: end of study, 10 mice per group
Excerpt: Subcutaneous administration of therapeutic agents is a suitable route of administration for emergency drugs that are intended to be used in people with traumatic brain injury, stroke or asphyxia, where the patient may not be capable of ingesting oral medications or may be in a situation where it is difficult to place an intravenous catheter. Subcutaneous drug administration is practical, but the composition must conform to volumes and osmolality values that are known to be compatible with this route of administration; excessively high osmolality can cause local edema, and volumes must be low enough for injection without problematic back pressure. Compositions comprising uridine, sodium beta-hydroxybutyrate and a combination of the two, with the osmolality restricted to a maximum of 800 milliosmoles/liter (a value known to be acceptable for subcutaneous fluid administration) were tested in a model of whole-body energy failure induced by daily intraperitoneal injections of 3-nitropropionic acid at two dose levels, 65 mg/kg/day and 70 mg/kg/day.
Survival times (median survival; the time point at which 50% of animals in a group had died) and percent survival at the end of a 13 day study were used to quantify and compare protective effects of the test agents.
Female CD-1 mice at approximately 16 weeks of age were divided into weight-matched groups of 10 mice each. All mice received daily intraperitoneal injections of 3-NP (65 mg/kg or 70 mg/kg) in a volume of 0.01 ml per gram of body weight at 5 PM.
The therapeutic treatments were administered by subcutaneous injection in a volume of 0.02 ml/gram of body weight three times per day, at 7 AM and 12 PM and 4 PM. 3-NP was administered at 5 PM on each of the consecutive days of the experiment. Body weights were recorded each day to adjust drug doses as mice lost weight during repeated treatment with 3-NP. D-BHB was administered as the water soluble sodium salt Na(D-BHB) (Toronto Research Chemicals, catalog #H833025.
1. Vehicle Control—0.9% saline t.i.d.
2. Uridine 200 mg/kg t.i.d.
3. Na(D-BHB) 985 mg/kg t.i.d.
4. Uridine 200 mg/kg+Na(D-BHB) 985 mg/kg t.i.d.

[4] = humans, cited from earlier work
[5] = system: mortality caused by 3-nitropropionic acid (inhibitor of Complex II of the mitochondrial respiratory chain); assay: Protection against mortality caused by 3-nitropropionic acid (Example 1; uridine and MgBHB); assay type: in vivo, Female CD-1 mice; conditions: 3-NP 60 mg/kg/day i.p., s.c. uridine 300 mg/kg b.i.d. and/or MgBHB 300 mg/kg b.i.d.; for Median Survival: 13 day study; for % Survival: end of 13 day study, 10 mice per group
Excerpt: 3-nitropropionic acid (3-NP) is an inhibitor of Complex II of the mitochondrial respiratory chain. Administration of 3-NP to experimental animals has been used as a model for mitochondrial diseases, Huntington's disease and pathological consequences of hypoxia. Daily dosing with 3-NP causes energy failure in the brain, heart and other tissues, resulting in mortality after several days. A 3-NP dosing regimen that caused 100% mortality in mice after approximately one week was selected for further evaluation of mortality, which is indicative of neuroprotective and cardioprotective effects, of compositions of the invention in a model of disorders caused by mitochondrial dysfunction. Survival times (median survival; the time point at which 50% of animals in a group had died) and percent survival at the end of the 13 day study were used to quantify protective effects of the test agents.
Female CD-1 mice at approximately 16 weeks of age were divided into weight-matched groups of 10 mice each. All mice received daily intraperitoneal injections of 3-NP (60 mg/kg) in a volume of 0.01 ml per gram of body weight. 3-NP was administered at 2 PM on each of the 13 consecutive days of the experiment. Body weights were recorded each day to adjust drug doses as mice lost weight during repeated treatment with 3-NP.
The comparative efficacy of uridine (VWR International) and the magnesium salt of racemic beta-hydroxybutyrate (magnesium β-hydroxybutyrate trihydrate; MgBHB·3H2O) (Nutra Planet) were assessed, as was the efficacy of a combination of uridine and MgBHB. All of the therapeutic treatments were administered by subcutaneous injection in a volume of 0.02 ml/gram of body weight twice per day, at 7 AM and 1 PM.
• 1. Vehicle Control—0.9% saline b.i.d. • 2. Uridine 300 mg/kg b.i.d. • 3. MgBHB 300 mg/kg b.i.d.

[6] = s.c. Na(D-BHB) 985.1 mg/kg with uridine

Compound | Median Survival [1] | Median Survival ([1]; listed as Na(DL-BHB)) | % Survival [1] | % Survival ([1]; listed as Na(DL-BHB)) | Maximum D-BHB concentration in plasma [2, 6] | Tmax of plasma D-BHB [2, 6] | Median Survival ([3]; 3-NP 65 mg/kg/day i.p.) | % Survival ([3]; 3-NP 65 mg/kg/day i.p.) | Median Survival ([3]; 3-NP 70 mg/kg/day i.p.) | % Survival ([3]; 3-NP 70 mg/kg/day i.p.) | Median Survival ([1]; listed as Na(D-BHB)) | % Survival ([1]; listed as Na(D-BHB)) | Tmax ([2]; female, CD-1, mouse, plasma, sc, s.c. uridine 200-400 mg/kg with or without Na(D-BHB) 985.1 mg/kg, read-out: Tmax of plasma uridine (and uridine+uracil)) | Plasma uridine (and uridine+uracil) C max values ([2]; s.c. uridine 200, 300, 400 mg/kg) | Local tolerability of infusion into peripheral veins ([4]; infusion into accessible peripheral veins) | Dose-limiting toxicity during intravenous infusion ([4]; intravenous infusion) | Median Survival [5] | % Survival [5]
CC(O)CC(=O)[O-].[Na+] (racemic) [Na (DL-BHB)] | 8 days | 7.5 days | 20% (2/10) | 20% |  |  |  |  |  |  |  |  |  |  |  |  |  | 
C[C@@H](O)CC(=O)[O-].[Na+] [Na (D-BHB)] | 7.5 days |  | 10% (1/10) |  | approximately 3 millimolar | 15 min | 10.5 days | 40% (4/10) | 6 days | 0% (0/10) | 8 days | 10% |  |  |  |  |  | 
O=c1ccn([C@@H]2O[C@H](CO)[C@@H](O)[C@H]2O)c(=O)[nH]1 [Uridine, uridine] | 12 days |  |  |  |  |  | 9 days | 30% (3/10) | 6.5 days | 10% (1/10) |  |  | 15 to 30 min | dose-dependent | caused local phlebitis | Hyperthermia was encountered as a dose-limiting toxicity | 12 days | 40% (4/10)
magnesium β-hydroxybutyrate trihydrate [MgBHB] |  |  |  |  |  |  |  |  |  |  |  |  |  |  |  |  | 10 days | 20% (2/10)
